Our source for the Activity values is ChEMBL document CHEMBL4334471, “Discovery of 1,8-disubstituted-[1,2,3]triazolo[4,5-c]quinoline derivatives as a new class of Hippo signaling pathway inhibitors” (Bioorg Med Chem Lett, 2019).

Test [1] deals with Calcium/calmodulin-dependent protein kinase type II subunit gamma (Homo sapiens) (UniProt Q13555). Kind of test: Inhibition of recombinant human CaMK2gamma (1 to 330 residues) assessed as residual activity at 10 uM using […] incubated for 40 mins in presence of [gamma-33ATP] by scintillation counting based radiometry assay relative to control.
In test [2] the test system is Proto-oncogene tyrosine-protein kinase Src (Homo sapiens), P12931 [T341M]. The test is described as follows: Inhibition of recombinant full length human SRC T341M mutant assessed as residual activity at 10 uM using GGEEEEYFELVKK as substrate incubated for 40 mins in presence of [gamma33P]ATP by scintillation counting based radiometry assay relative to control.
Test [3] addresses MAPK/MAK/MRK overlapping kinase (Homo sapiens) (UniProt Q9UQ07). Kind of test: Inhibition of recombinant human MOK (1 to 343 residues) assessed as residual activity at 10 uM using RSRSRSRSRSRSR as substrate incubated for 40 mins in presence of [gamma-33ATP by scintillation counting based radiometry assay relative to control.
For test [4], the target named is Mitogen-activated protein kinase kinase kinase kinase 3 (Homo sapiens) (UniProt Q8IVH8). Kind of test: Inhibition of recombinant human MAP4K3 (1 to 291 residues) assessed as residual activity at 10 uM using RLGRDKYKTLRQI as substrate incubated for 40 mins in presence of [gamma-33ATP by scintillation counting based radiometry assay relative to control.
Test [5] concerns the target Focal adhesion kinase 1 (Homo sapiens) (UniProt Q05397). The test is described as follows: Inhibition of recombinant human FAK (411 to 686 residues) assessed as residual activity at 10 uM using EEEEYEEEEEEYYIIEEEEEEYEEEEEEYYEEEEEEKKKK as substrate at 40 mins in presence of [gamma-33ATP] by scintillation counting based radiometry assay relative to control.
Test [6] deals with Tyrosine-protein kinase Blk (Mus musculus) (UniProt P16277). The test is described as follows: Inhibition of recombinant full length mouse BLK assessed as residual activity at 10 uM using poly(Glu, Tyr) 4:1 as substrate incubated for 40 mins in presence of [gamma-33ATP] by scintillation counting based radiometry assay relative to control.
Test [7] addresses Serine/threonine-protein kinase mTOR (Homo sapiens) (UniProt P42345). The test is described as follows: Inhibition of recombinant full length human mTOR assessed as residual activity at 10 uM measured after 40 mins in presence of [gamma33P]ATP by scintillation counting based radiometry assay relative to control.
The target in test [8] is Tyrosine-protein kinase Lck (Homo sapiens) (UniProt P06239). Kind of test: Inhibition of recombinant full length human LCK activated assessed as residual activity at 10 uM using KVEKIGEGTYGVVYK as substrate after 40 mins in presence of [gamma-33ATP] by scintillation counting based radiometry assay relative to control.
The target of test [9] is Serine/threonine-protein kinase BRSK1 (Homo sapiens) (UniProt Q8TDC3). The test is described as follows: Inhibition of recombinant human BRSK1 ( 2 to end residues) assessed as residual activity at 10 uM using KKKVSRSGLYRSPSMPENLNRPR substrate incubated for 40 mins in presence of [gamma-33ATP] by scintillation counting based radiometry assay relative to control.
The target in test [10] is Serine/threonine-protein kinase/endoribonuclease IRE1 (Homo sapiens) (UniProt O75460). Kind of test: Inhibition of human IRE1 (465 to end residues) assessed as residual activity at 10 uM using myelin basic protein as substrate after 40 mins by [gamma-33ATP] radiometric assay relative to control.
In test [11] the target is Serine/threonine-protein kinase PAK 3 (Homo sapiens) (UniProt O75914). The test is described as follows: Inhibition of recombinant full-length human PAK3 assessed as residual activity at 10 uM using RRRLSFAEPG as substrate measured after 40 mins in presence of [gamma33P]ATP by scintillation counting based radiometry assay relative to control.
The target of test [12] is Tyrosine-protein kinase ZAP-70 (Homo sapiens) (UniProt P43403). The test is described as follows: Inhibition of recombinant full length human ZAP70 assessed as residual activity at 10 uM using poly(Glu, Tyr) 4:1 as substrate incubated for 40 mins in presence of [gamma33P]ATP by scintillation counting based radiometry assay relative to control.
For test [13], the target named is Bone morphogenetic protein receptor type-1B (Homo sapiens) (UniProt O00238). Kind of test: Inhibition of human ALK6 (148 to end residues) assessed as residual activity at 10 uM using casein as substrate incubated for 40 mins in presence of [gamma-33ATP] by scintillation counting based radiometry assay relative to control.
Test [14] addresses Serine/threonine-protein kinase NIM1 (Homo sapiens) (UniProt Q8IY84). Kind of test: Inhibition of recombinant full length human NIM1 assessed as residual activity at 10 uM using KKKVSRSGLYRSPSMPENLNRPR as substrate measured after 40 mins in presence of [gamma33P]ATP by scintillation counting based radiometry assay relative to control.
In test [15] the target is Cyclin-dependent kinase 14/Cyclin-Y (Homo sapiens) (UniProt O94921+Q8ND76). The test is described as follows: Inhibition of recombinant full length human CDK14/cyclinY assessed as residual activity at 10 uM in presence of [gamma-33ATP] by scintillation counting based radiometry assay relative to control. The format is protein-complex assay.
Test [16] has as its target Tau-tubulin kinase 1 (Homo sapiens) (UniProt Q5TCY1). Kind of test: Inhibition of recombinant human TTBK1 (1 to 479 residues) assessed as residual activity at 10 uM using casein as substrate incubated for 40 mins in presence of [gamma33P]ATP by scintillation counting based radiometry assay relative to control.
The species entered for the next test is Homo sapiens. Kind of test: Inhibition of recombinant human MAPKAPK2 A399G mutant (46 to end residues) assessed as residual activity at 10 uM using KKLNRTLSVA as substrate incubated for 40 mins in presence of [gamma-33ATP by scintillation counting based radiometry assay relative to control.
Test [17] concerns the target NT-3 growth factor receptor (Homo sapiens) (UniProt Q16288). The test is described as follows: Inhibition of recombinant human TRKC (510 to end residues) assessed as residual activity at 10 uM using GEEPLYWSFPAKK as substrate incubated for 40 mins in presence of [gamma33P]ATP by scintillation counting based radiometry assay relative to control.
Another test is filed under the species Mus musculus. The test is described as follows: Inhibition of recombinant full-length mouse PI3K p110/p85 E542K mutant assessed as residual activity at 10 uM using phosphatidylinositol-4, 5-bisphosphate as substrate incubated for 40 mins in presence of [gamma33P]ATP by scintillation counting based radiometry assay relative to control.
Test [18] deals with Serine/threonine-protein kinase tousled-like 1 (Homo sapiens) (UniProt Q9UKI8). Kind of test: Inhibition of recombinant full-length human TLK1 assessed as residual activity at 10 uM using casein as substrate incubated for 40 mins in presence of [gamma33P]ATP by scintillation counting based radiometry assay relative to control.
Test [19] concerns the target 5'-AMP-activated protein kinase catalytic subunit alpha-2 (Homo sapiens) (UniProt P54646). Kind of test: Inhibition of recombinant full length human AMPKalpha2 assessed as residual activity at 10 uM using AMARAASAAALAR as substrate incubated for 40 mins in presence of [gamma-33ATP] by scintillation counting based radiometry assay relative to control.

Each structure is given as a SMILES string.

Tau-tubulin kinase 1 (Homo sapiens), sequence (Q5TCY1 whole entry, the tested form may be a part): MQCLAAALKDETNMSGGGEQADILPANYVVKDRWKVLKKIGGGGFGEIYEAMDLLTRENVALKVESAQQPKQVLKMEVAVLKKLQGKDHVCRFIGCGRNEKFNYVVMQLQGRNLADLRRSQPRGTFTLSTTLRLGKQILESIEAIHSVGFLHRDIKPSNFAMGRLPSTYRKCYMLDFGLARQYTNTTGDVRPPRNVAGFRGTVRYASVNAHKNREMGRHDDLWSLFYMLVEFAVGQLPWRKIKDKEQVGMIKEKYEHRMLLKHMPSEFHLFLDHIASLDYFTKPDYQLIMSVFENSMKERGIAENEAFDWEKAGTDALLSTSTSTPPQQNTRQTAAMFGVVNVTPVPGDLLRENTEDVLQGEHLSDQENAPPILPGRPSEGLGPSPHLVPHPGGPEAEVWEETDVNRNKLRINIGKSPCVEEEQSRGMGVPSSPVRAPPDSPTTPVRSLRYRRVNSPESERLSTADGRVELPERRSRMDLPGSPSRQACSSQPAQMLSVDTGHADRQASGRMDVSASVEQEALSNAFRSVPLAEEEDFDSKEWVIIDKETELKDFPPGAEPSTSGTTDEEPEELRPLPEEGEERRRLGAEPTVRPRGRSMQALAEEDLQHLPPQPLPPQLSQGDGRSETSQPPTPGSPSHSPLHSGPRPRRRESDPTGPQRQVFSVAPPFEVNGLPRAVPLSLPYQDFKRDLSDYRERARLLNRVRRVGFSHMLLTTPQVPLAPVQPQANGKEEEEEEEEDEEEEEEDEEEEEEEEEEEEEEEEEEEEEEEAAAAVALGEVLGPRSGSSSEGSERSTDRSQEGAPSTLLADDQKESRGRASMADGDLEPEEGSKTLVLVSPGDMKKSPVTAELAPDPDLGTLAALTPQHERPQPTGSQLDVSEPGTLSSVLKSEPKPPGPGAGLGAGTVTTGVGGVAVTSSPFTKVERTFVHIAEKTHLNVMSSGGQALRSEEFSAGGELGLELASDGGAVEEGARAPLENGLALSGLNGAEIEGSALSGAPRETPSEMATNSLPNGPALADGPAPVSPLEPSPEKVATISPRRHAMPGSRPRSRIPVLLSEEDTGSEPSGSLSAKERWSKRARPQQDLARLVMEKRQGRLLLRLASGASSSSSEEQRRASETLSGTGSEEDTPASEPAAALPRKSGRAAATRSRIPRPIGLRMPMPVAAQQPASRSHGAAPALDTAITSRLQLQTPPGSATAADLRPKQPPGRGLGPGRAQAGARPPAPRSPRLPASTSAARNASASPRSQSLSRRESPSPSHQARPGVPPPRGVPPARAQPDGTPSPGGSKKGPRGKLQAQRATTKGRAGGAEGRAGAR
NT-3 growth factor receptor (Homo sapiens), sequence (Q16288 32-839 limits assumed): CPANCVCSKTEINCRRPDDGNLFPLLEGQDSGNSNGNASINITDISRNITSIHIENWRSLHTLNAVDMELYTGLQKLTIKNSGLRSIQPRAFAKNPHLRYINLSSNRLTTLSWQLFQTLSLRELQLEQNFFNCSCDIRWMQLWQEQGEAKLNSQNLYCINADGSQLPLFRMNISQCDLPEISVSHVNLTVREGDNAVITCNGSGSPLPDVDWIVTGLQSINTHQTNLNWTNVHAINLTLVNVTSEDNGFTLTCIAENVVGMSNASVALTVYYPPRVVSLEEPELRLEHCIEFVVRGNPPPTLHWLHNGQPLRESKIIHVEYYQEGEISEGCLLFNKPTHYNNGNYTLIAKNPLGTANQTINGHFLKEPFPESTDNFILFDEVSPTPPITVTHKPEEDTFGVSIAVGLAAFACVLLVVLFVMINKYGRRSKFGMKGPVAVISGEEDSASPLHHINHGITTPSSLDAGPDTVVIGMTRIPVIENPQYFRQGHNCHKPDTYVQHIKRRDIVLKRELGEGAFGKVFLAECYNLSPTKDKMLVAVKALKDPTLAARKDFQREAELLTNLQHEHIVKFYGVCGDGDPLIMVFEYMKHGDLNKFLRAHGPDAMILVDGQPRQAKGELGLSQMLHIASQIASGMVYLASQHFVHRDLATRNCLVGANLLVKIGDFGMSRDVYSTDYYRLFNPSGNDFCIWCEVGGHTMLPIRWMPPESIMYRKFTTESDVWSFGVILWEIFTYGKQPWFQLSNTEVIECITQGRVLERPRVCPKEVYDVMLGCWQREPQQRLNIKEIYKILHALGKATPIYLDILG
Focal adhesion kinase 1 (Homo sapiens), sequence (Q05397 2-1052 limits assumed): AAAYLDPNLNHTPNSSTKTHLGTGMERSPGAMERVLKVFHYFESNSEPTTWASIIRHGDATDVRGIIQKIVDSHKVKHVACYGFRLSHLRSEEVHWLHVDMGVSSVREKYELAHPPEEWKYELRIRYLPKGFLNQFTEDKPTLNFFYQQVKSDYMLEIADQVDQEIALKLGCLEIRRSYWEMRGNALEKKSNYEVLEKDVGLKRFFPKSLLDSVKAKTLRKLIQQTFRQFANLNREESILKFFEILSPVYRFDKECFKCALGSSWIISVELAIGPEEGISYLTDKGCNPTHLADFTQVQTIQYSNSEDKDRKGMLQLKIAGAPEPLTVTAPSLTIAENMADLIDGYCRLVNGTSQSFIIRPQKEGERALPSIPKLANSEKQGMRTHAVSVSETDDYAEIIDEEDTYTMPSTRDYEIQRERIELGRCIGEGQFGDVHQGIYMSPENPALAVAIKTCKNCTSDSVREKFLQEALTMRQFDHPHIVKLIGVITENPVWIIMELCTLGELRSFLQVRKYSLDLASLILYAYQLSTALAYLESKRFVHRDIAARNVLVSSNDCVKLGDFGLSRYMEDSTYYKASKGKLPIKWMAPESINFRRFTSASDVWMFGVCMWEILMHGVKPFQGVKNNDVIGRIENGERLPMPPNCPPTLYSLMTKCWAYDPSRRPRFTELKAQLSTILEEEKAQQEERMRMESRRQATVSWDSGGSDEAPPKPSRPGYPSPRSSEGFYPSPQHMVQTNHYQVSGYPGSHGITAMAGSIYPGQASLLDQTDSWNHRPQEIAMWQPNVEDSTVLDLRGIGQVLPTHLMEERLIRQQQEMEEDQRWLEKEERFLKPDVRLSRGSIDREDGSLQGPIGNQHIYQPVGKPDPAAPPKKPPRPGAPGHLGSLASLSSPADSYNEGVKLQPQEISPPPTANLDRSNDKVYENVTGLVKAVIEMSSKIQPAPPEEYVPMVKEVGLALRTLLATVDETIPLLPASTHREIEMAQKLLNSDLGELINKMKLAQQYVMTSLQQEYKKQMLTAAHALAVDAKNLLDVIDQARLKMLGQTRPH
Serine/threonine-protein kinase BRSK1 (Homo sapiens), sequence (Q8TDC3 whole entry): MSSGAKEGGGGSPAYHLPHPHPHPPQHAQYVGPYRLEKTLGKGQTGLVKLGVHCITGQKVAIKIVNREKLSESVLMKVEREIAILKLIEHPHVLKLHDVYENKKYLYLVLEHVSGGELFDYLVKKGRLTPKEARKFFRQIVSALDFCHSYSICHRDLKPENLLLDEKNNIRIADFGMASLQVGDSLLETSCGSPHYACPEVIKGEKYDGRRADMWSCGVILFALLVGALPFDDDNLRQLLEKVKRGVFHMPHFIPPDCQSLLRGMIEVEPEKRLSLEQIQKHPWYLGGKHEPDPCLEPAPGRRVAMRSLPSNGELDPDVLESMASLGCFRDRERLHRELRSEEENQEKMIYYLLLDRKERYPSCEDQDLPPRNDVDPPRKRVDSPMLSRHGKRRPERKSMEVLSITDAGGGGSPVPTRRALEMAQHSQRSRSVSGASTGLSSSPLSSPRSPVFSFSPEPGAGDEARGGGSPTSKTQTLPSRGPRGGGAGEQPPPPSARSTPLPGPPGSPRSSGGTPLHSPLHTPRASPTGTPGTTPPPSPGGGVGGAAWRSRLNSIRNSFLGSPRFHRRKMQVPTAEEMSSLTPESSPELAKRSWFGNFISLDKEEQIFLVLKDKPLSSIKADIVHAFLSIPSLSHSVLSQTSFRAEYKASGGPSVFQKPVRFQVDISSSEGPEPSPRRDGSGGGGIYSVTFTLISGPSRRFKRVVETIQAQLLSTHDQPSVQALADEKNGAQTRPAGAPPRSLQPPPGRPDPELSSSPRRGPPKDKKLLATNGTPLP
Mitogen-activated protein kinase kinase kinase kinase 3 (Homo sapiens), sequence (Q8IVH8 whole entry, the tested form may be a part): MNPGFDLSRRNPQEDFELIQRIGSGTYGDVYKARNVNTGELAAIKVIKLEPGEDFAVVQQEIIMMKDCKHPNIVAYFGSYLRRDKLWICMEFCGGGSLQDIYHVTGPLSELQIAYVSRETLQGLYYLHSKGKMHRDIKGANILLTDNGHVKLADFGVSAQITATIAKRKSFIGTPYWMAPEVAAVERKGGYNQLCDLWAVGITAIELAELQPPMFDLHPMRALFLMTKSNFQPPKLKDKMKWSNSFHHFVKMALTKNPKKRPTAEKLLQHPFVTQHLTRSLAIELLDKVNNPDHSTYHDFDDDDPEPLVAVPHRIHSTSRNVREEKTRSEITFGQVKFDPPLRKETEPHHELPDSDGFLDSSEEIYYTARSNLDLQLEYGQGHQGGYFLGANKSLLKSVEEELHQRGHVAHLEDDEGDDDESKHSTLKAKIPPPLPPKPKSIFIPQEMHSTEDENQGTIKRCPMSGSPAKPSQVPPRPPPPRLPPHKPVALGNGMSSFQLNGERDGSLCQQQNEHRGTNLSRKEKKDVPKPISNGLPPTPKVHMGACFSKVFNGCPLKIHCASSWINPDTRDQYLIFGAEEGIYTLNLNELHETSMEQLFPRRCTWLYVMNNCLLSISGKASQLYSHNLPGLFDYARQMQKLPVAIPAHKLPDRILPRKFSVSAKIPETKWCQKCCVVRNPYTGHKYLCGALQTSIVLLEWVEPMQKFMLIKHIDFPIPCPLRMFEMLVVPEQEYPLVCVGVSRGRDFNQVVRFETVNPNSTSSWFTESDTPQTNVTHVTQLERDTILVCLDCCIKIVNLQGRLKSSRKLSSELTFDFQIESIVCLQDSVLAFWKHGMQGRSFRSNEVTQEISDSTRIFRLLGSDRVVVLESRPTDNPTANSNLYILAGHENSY

For `C[C@@H](c1ccccc1)n1nnc2cnc3ccc(-c4cnc5[nH]ccc5c4)cc3c21`, the Activity is 72% in [1]; 74% in test [2]; 99% in [3]; 73% in test [4]; 82% in test [5]; 12% in test [6]. The Activity is -7% in test [7]; 4% in test [8]; 36% in test [9]; 86% in test [10]; 136% in test [11]; 150% in test [12]. The Activity in test [13] was determined as 93%; in [14] it was 99%; in test [15], 92%; in test [16] it was 91%; in the test listed under Homo sapiens, 67%; in [17], 2%. In addition, the Activity in the test listed under Mus musculus is -1%; in test [18] it was 99%; in test [19], 35%.
